# Source: PubChem BioAssay (NCI)
# Several values for one entry are separate records, joined by “and”; a condition that tells them apart may be missing. Equal entries are not always repeated.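 How tested: cells in 96-well plates exposed to compound for 48 hours at five concentrations. GI50 is the concentration that inhibits growth by half. Definition used: TGI = concentration required for complete inhibition of growth.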
# Tests used:
# Assay in all cases: inhibition of tumour cell growth, NCI panel, 48 h
# IGROV1 ovarian = test system: IGROV1 ovarian
# K-562 leukemia = test system: K-562 leukemia
# MALME-3M melanoma = test system: MALME-3M melanoma
# MDA-N = test system: MDA-N
# NCI-H23 lung = test system: NCI-H23 lung
# OVCAR-4 ovarian = test system: OVCAR-4 ovarian
# OVCAR-8 ovarian = test system: OVCAR-8 ovarian
# SK-MEL-2 melanoma = test system: SK-MEL-2 melanoma
# SN12C renal = test system: SN12C renal
# TK-10 renal = test system: TK-10 renal
Structure (SMILES),TGI (IGROV1 ovarian) [µM],TGI (K-562 leukemia),TGI (MALME-3M melanoma),TGI (MDA-N) [µM],TGI (NCI-H23 lung),TGI (OVCAR-4 ovarian),TGI (OVCAR-8 ovarian),TGI (SK-MEL-2 melanoma),TGI (SN12C renal),TGI (TK-10 renal),GI50 (MDA-N) [µM],GI50 (K-562 leukemia)
Cc1cc(C)c2c(=O)n(CN3CC4Nc5ccccc5C4C3)sc2n1 (stereo unspecified),> 100,92.7 µM,27.8 µM,44.3,47.6 µM,42.2 µM,52 µM,54.2 µM,> 100 µM,35.8 µM,–,–
CC(C)=CCc1c2c(c3occ(-c4ccc(O)c(O)c4)c(=O)c3c1O)C=CC(C)(C)O2,6,5.12 µM,2.53 µM,3.38,3.84 µM,3.39 µM,9.31 µM,11.1 µM,3.07 µM,3.67 µM,–,–
COc1ccc(Nc2nc3ccc(C(F)(F)F)cc3nc2C(=O)O)cc1OC,> 100,> 100 µM,> 100 µM,> 100,58.6 µM,> 100 µM,> 100 µM,35.5 µM,> 100 µM,–,–,–
O=C(Nc1cccc2cnccc12)c1cc2c(cc1Cl)Sc1nccn1S2(=O)=O,45.8,> 100 µM,38.7 µM,23.7,28.6 µM,87.1 µM,62.7 µM,32.2 µM,30.5 µM,59.2 µM,–,–
O=C1c2ccccc2CN1c1ccc(O)cc1,> 100,> 100 µM,> 100 µM,> 100,> 100 µM,> 100 µM,> 100 µM,> 100 µM,> 100 µM,> 100 µM,–,–
N#Cc1c(-c2ccccc2)/c(=C\Nc2ccc(Cl)cc2)c(=O)n2c1nc1ccccc12,> 100,–,> 100 µM,> 100,> 100 µM,> 100 µM,> 100 µM,> 100 µM,> 100 µM,> 100 µM,–,–
CCCCCCCCCC[C@H](O)[C@H]1CC[C@H]([C@H]2CC[C@H]([C@H](O)CC[C@H](O)CCCCCCC[C@@H](O)CC3=C[C@H](C)OC3=O)O2)O1,> 100,67.8 µM,> 100 µM,> 100,> 100 µM,> 100 µM,> 100 µM,> 100 µM,> 100 µM,> 100 µM,6.36,–
CC(CC(C#N)(c1ccccc1)c1ccccc1)N1CCCCC1 (stereo unspecified),> 100,45.5 µM,35.6 µM,46.7,> 100 µM,> 100 µM,> 100 µM,46.4 µM,74.5 µM,46.5 µM,–,–
C=C1[C@@H](O)C[C@@]23CC[C@@H]4[C@@]5(C)CC[C@@H](OC(C)=O)C(C)(C)[C@@H]5C[C@@H](OC5OC(COC(C)=O)C(O)C(O)C5O)[C@@]4(C)C2=CC[C@H]3[C@H]1C (stereo partly specified),15,10.6 µM,23.9 µM,17.5,26.5 µM,21 µM,21.8 µM,7.39 µM,21 µM,21 µM,–,–
CC(=O)NS(=O)(=O)c1ccc(NC(=O)c2c3ccccc3nc3ccccc23)cc1,> 100,> 100 µM,> 100 µM,> 100,> 100 µM,> 100 µM,> 100 µM,> 100 µM,> 100 µM,> 100 µM,–,–
CC(C)(C)N=c1n(C(C)(C)C)oc(=O)n1C(C)(C)C,> 100,> 100 µM,> 100 µM,> 100,> 100 µM,> 100 µM,> 100 µM,> 100 µM,> 100 µM,> 100 µM,–,–
CCCCOC(C)(C)/C=C/C(O)[C@](C)(O)[C@H]1[C@H](O)C[C@@]2(C)[C@@H]3CCc4c(cc(OC5OC(CO)C(O)C(O)C5O)c(O)c4C)C3(C)C(=O)C[C@]12C (stereo partly specified),> 100,> 100 µM,> 100 µM,> 100,> 100 µM,> 100 µM,> 100 µM,> 100 µM,> 100 µM,> 100 µM,–,–
O=C1NCCCc2nonc21,> 100,> 100 µM,> 100 µM,> 100,> 100 µM,> 100 µM,> 100 µM,> 100 µM,> 100 µM,> 100 µM,–,–
O=C(O)C1CC(c2ccc(F)cc2)=Nc2ccc(F)cc2S1 (stereo unspecified),> 100,> 100 µM,> 100 µM,> 100,> 100 µM,> 100 µM,> 100 µM,> 100 µM,> 100 µM,> 100 µM,–,–
O=C1C(c2c(O)[nH]c3ccc(S(=O)(=O)O)cc23)=Nc2ccccc21,> 100,> 100 µM,> 100 µM,> 100,> 100 µM,> 100 µM,> 100 µM,> 100 µM,> 100 µM,> 100 µM,–,–
O=C1CCC(=Nc2ccc(Cl)cc2)N1C(=O)COc1ccc(OCC(=O)N2C(=O)CSC2=Nc2ccc(Cl)cc2)cc1,> 100,> 100 µM,> 100 µM,> 100,> 100 µM,> 100 µM,> 100 µM,> 100 µM,> 100 µM,> 100 µM,–,–
CC1(C)C(c2ccccc2)=[N+]([O-])C(C)(C)N1O,> 10,–,> 10 µM,> 10,> 10 µM,> 10 µM,> 10 µM,> 10 µM,> 10 µM,> 10 µM,–,–
O=C(CN1CCCCC1)CC(O)(C(F)(F)F)C(F)(F)F,> 100,> 100 µM,> 100 µM,> 100,> 100 µM,> 100 µM,> 100 µM,> 100 µM,–,> 100 µM,–,–
C/C(N=Nc1nc2ccccc2s1)=C1/C=CC=CN1O,> 100,> 100 µM,57.4 µM,> 100,> 100 µM,> 100 µM,> 100 µM,> 100 µM,> 100 µM,61.3 µM,–,–
COc1cc2c(cc1OC)C1c3ccccc3CCN1CC2 (stereo unspecified),> 100,> 100 µM,> 100 µM,> 100,> 100 µM,> 100 µM,> 100 µM,> 100 µM,> 100 µM,> 100 µM,–,–
COc1cc(C2c3cc4c(cc3OC(NN=C(C)C)C2C)OCO4)cc(OC)c1O (stereo unspecified),> 100,–,> 100 µM,11.6,> 100 µM,> 100 µM,> 100 µM,55.9 µM,> 100 µM,> 100 µM,–,–

Structure (SMILES),TGI (IGROV1 ovarian) [µM],TGI (K-562 leukemia),TGI (MALME-3M melanoma),TGI (MDA-N) [µM],TGI (NCI-H23 lung),TGI (OVCAR-4 ovarian),TGI (OVCAR-8 ovarian),TGI (SK-MEL-2 melanoma),TGI (SN12C renal),TGI (TK-10 renal),GI50 (MDA-N) [µM],GI50 (K-562 leukemia)
O=c1cc(/C=C/c2ccc(O)c(O)c2)oc(/C=C/c2ccc(O)c(O)c2)c1,16.6,> 20.7 µM,19.1 µM,16.6,25.1 µM,11.7 µM,22.4 µM,9.97 µM,16 µM,19.4 µM,–,–
CCOP(=O)(OCC)C1C(CO)OC(n2ccc(=O)[nH]c2=O)C1O (stereo unspecified),> 100,> 100 µM,> 100 µM,> 100,–,> 100 µM,> 100 µM,> 100 µM,> 100 µM,> 100 µM,–,–
CC1(C)O[C@@H]2COC(=O)[C@@H]2O1,> 100,> 100 µM,> 100 µM,> 100,> 100 µM,> 100 µM,> 100 µM,> 100 µM,> 100 µM,> 100 µM,–,–
C=C(C)CCC(=O)[C@](C)(O)[C@H]1[C@H](O)C[C@@]2(C)[C@@H]3CCc4c(cc(OC5OC(CO)C(O)C(O)C5O)c(O)c4C)C3(C)C(=O)C[C@]12C (stereo partly specified),> 100,> 100 µM,> 100 µM,> 100,> 100 µM,> 100 µM,> 100 µM,> 100 µM,> 100 µM,> 100 µM,–,–
O=C1CCSSCCC(=O)NCCN1,> 100,> 100 µM,> 100 µM,> 100,> 100 µM,> 100 µM,> 100 µM,> 100 µM,> 100 µM,> 100 µM,–,–
NC(CSCc1ccccc1)C(=O)O (stereo unspecified),> 100,> 100 µM,> 100 µM,> 100,> 100 µM,> 100 µM,> 100 µM,> 100 µM,> 100 µM,> 100 µM,–,–
C=C1C(=O)OC2/C=C(\CO)C(OC(C)=O)CC(O)/C(C)=C/C(OC(=O)C(C)CC)C12 (stereo unspecified),> 100,21.4 µM and > 100 µM,31.2 µM and 32 µM,33.4,32.1 µM and 59.9 µM,32.5 µM and > 100 µM,36.4 µM and 52.1 µM,32.3 µM and 33.1 µM,36 µM and 36.6 µM,36 µM and 38.7 µM,–,5.62 µM and 36.9 µM
CCC1=CCC23C(=O)C=CC(=O)C2(C1)C(=O)c1cccc(OC)c1C3=O (stereo unspecified),26.9,72.4 µM,30 µM,35.7,46.4 µM,26.1 µM,29.9 µM,> 100 µM,35.2 µM,33.5 µM,–,–
c1ccc2c(c1)[nH]c1nc3cc(-c4ccc5nc6c(nc5c4)[nH]c4ccccc46)ccc3nc12,> 100,–,> 100 µM,> 100,> 100 µM,> 100 µM,> 100 µM,> 100 µM,> 100 µM,> 100 µM,–,–
O=c1c2ncn(C3CC(O)C(CO)O3)c2nnn1Cc1ccccc1[N+](=O)[O-] (stereo unspecified),> 100,> 100 µM,> 100 µM,> 100,> 100 µM,> 100 µM,> 100 µM,> 100 µM,> 100 µM,> 100 µM,–,–
CCSC1=CC(=O)c2nc3ccccc3c3ccnc1c23,9.4,–,3.32 µM,4,11.4 µM,7.53 µM,> 100 µM,5.6 µM,8.43 µM,26.5 µM,–,–
Nn1c(CCCCCCCCc2nnc(COc3c(O)ccc4ccccc34)n2N)nnc1COc1c(O)ccc2ccccc12,> 100,> 100 µM,> 100 µM,> 100,> 100 µM,> 100 µM,–,> 100 µM,> 100 µM,> 100 µM,–,–
CSCCC(NCc1c(O)ccc2c(-c3ccccc3)cc(=O)oc12)C(=O)O (stereo unspecified),> 100,> 100 µM,> 100 µM,> 100,> 100 µM,> 100 µM,> 100 µM,> 100 µM,> 100 µM,> 100 µM,–,–
CCOC1CC(=O)c2c(Br)sc(Br)c21 (stereo unspecified),31,41.5 µM,40.8 µM,49.6,37.4 µM,–,38.5 µM,37.2 µM,58.4 µM,46.4 µM,–,–
CCCCn1c2c(n(CCCC)c1=S)-c1c(n(CCCC)c(=S)n1CCCC)S[Se][Se]S2,9.16,> 100 µM,5.09 µM,36.3,41.5 µM,> 37.4 µM,29.9 µM,> 55.6 µM,99.1 µM,30.5 µM,–,–
O=C(O)[C@@H]1C[C@@H](O)CN1C(=O)OCc1ccccc1,> 100,> 100 µM,> 100 µM,> 100,> 100 µM,> 100 µM,> 100 µM,> 100 µM,> 100 µM,> 100 µM,–,–
CN(C)NC(=S)Nc1ccccc1Br,> 100,> 100 µM,> 100 µM,> 100,> 100 µM,> 100 µM,> 100 µM,> 100 µM,–,> 100 µM,–,–
COC(=O)NN(C(=O)OC)c1c(-c2ccccc2)nc(SC)n1N,> 100,> 100 µM,> 100 µM,> 100,> 100 µM,> 100 µM,> 100 µM,> 100 µM,> 100 µM,> 100 µM,–,–
O=C1/C(=C/c2ccccc2S)N=C(c2ccccc2)N1c1nc2ccc(Sc3ccccc3)cc2[nH]1,> 100,> 100 µM,> 100 µM,34.4,> 100 µM,> 100 µM,> 100 µM,36.2 µM,99.1 µM,70.3 µM,–,–
CN(C)c1ccc(-c2c(C#N)c(S)n(NS(=O)(=O)c3ccccc3)c(=O)c2C#N)cc1,73.5,> 100 µM,> 100 µM,86.5,> 100 µM,74.2 µM,56.8 µM,> 100 µM,76.2 µM,41.4 µM,–,–
Cc1ccccc1OC(C)C(=O)NN1C(=O)CC(=O)N(c2ccc(Cl)cc2)C1=S (stereo unspecified),> 100,> 100 µM,> 100 µM,> 100,> 100 µM,> 100 µM,> 100 µM,> 100 µM,> 100 µM,> 100 µM,–,–
